28 compounds from patent US9725465B2, “Biaryl acetamide compounds and methods of use thereof” (Ambit Biosciences Corporation, priority 2013, dated 2017) can be followed below.

The target in one assay is FLT3-ITD (Homo sapiens (Human), UniProt P36888, INS600HVDFREYEYD). The experiment in a line: pFLT3 MSD assay, Ba/F3 FLT3-ITD. The class given is cell-based. The note with it: Ba/F3 FLT3-ITD cells, 2 hours, read-out: BaF3-FLT3-ITD pFlt3 IC50.
For the next assay, the target named is FLT3 kinase (Homo sapiens (Human), UniProt P36888). The experiment in a line: Competition binding assay (Kd), FLT3.
Chain of FLT3 kinase (P36888 27-993): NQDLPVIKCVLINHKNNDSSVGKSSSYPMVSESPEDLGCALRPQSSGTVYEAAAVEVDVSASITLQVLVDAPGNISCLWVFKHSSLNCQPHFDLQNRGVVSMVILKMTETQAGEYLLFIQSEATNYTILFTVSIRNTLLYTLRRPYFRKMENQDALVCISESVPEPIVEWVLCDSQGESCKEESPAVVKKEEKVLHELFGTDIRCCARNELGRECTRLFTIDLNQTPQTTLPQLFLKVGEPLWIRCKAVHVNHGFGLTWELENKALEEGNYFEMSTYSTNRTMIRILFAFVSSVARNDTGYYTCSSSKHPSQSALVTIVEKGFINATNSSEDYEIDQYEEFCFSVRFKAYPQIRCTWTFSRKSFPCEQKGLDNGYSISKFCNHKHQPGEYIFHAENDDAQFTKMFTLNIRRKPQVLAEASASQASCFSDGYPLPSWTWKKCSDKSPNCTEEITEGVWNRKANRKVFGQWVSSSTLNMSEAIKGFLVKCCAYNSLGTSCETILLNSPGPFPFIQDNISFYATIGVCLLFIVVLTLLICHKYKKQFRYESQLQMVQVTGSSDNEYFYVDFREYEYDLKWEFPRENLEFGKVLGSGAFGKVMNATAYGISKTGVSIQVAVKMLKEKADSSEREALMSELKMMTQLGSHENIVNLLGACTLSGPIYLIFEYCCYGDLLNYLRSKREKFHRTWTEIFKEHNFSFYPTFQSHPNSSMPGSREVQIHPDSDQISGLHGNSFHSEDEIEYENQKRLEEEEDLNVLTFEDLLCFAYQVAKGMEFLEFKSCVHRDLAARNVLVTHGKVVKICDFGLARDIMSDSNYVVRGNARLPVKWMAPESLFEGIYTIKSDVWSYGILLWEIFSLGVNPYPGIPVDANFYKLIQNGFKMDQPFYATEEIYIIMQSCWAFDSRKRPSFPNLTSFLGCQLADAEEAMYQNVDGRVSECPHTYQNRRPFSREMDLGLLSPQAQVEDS
For the next assay, the target named is KIT kinase (Homo sapiens (Human), UniProt P10721). The experiment in a line: Competition binding assay (Kd), KIT. Summed up:
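Kd derived from eleven-point threefold serial dilutions of compound competing with bead-bound ligand for kinase; bound kinase eluted and measured by quantitative PCR. Kinase supplied either as a T7 phage fusion or expressed in HEK-293 cells with a DNA tag; DMSO served as control.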

pIC50, pKd: −log10 of the molar value.

Chain of KIT kinase (P10721 26-976): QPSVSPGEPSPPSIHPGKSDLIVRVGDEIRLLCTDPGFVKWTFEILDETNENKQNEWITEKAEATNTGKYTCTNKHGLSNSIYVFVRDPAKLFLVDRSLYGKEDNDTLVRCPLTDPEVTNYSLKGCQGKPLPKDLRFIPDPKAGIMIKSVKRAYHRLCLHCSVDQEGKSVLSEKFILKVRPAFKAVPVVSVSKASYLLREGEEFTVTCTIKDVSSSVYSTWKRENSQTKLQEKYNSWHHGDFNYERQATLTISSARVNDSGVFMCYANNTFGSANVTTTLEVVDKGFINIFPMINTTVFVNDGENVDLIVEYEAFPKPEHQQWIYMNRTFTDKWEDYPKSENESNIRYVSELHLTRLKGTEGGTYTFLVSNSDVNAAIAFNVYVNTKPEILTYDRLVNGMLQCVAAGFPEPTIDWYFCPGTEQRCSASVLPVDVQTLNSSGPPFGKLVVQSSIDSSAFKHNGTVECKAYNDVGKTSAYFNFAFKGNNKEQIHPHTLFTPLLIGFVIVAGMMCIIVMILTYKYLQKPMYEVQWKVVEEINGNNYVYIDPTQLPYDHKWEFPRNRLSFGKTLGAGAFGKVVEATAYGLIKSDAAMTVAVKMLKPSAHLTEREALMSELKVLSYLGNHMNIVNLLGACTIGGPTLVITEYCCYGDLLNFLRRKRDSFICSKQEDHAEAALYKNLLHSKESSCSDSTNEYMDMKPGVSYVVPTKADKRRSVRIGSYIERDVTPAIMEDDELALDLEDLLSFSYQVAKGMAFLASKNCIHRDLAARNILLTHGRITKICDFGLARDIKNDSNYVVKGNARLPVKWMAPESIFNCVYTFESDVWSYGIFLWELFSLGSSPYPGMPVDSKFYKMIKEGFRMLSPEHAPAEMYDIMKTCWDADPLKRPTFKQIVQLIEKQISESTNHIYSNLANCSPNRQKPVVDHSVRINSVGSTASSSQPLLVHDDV
Chain of FLT3-ITD (P36888 other isoform, or with tags, fused parts or gaps limits assumed, stated change not applied): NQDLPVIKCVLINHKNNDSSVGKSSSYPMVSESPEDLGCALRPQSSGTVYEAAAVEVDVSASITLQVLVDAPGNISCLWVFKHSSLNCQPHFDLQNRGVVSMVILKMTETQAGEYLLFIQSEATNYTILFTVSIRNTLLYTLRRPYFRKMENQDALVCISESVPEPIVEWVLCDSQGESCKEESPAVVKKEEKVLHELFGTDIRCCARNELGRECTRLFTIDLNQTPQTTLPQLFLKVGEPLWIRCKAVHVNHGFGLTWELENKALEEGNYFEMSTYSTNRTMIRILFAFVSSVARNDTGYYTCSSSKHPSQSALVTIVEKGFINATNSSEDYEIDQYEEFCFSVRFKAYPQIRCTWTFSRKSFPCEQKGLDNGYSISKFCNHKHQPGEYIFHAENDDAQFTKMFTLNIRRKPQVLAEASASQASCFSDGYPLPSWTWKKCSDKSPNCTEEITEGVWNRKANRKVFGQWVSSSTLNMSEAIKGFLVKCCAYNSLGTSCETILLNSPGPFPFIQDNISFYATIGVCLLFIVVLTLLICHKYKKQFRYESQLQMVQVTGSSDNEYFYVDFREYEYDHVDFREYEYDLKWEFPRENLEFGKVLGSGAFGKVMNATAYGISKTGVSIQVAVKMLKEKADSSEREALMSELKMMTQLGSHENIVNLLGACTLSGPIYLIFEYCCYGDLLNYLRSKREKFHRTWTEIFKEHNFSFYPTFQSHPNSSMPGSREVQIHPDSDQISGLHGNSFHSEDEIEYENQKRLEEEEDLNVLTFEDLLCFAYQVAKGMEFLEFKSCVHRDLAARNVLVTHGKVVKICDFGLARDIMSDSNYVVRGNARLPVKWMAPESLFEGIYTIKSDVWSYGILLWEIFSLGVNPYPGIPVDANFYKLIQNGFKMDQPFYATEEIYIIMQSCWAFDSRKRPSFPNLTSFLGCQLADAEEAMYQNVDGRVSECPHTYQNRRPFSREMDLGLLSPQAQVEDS
Description for FLT3 kinase: The liganded beads were blocked with excess biotin and washed with blocking buffer (SeaBlock (Pierce), 1% BSA, 0.05% Tween 20, 1 mM DTT) to remove unbound ligand and to reduce non-specific binding. […] Test compounds were prepared as 100× stocks in DMSO and diluted into the aqueous environment. Kds were determined using an eleven point threefold serial dilutions. DMSO or control compounds were was added to control assays lacking a test compound. […] The kinase concentration in the eluates was measured by quantitative PCR.
A selectivity score (S35) is a quantitative measure of selectivity of a compound against a panel of kinases. […] Percent of control (POC) is calculated by subtracting the signal of the control compound (POC=0) from the signal of the test compound and dividing the outcome by the signal of DMSO (POC=100) minus the signal of the control compound.

For the compound `O=C(Cc1ccc(-c2cnc3[nH]ccc3c2)cc1F)Nc1cc(C2(C(F)(F)F)CC2)on1` [Example 28, 2-(2-fluoro-4-(1H-pyrrolo[2,3-b]pyridin-5-yl)phenyl)-N-(5-(1-(trifluoromethyl)cyclopropyl)isoxazol-3-yl)acetamide], the pIC50 (commonly the negative decadic logarithm of the IC50, by convention in mol/L) on FLT3-ITD was greater than 8.00.
On the same count and under the same terms, the same measure for `CC(C)(C)c1cc(NC(=O)Cc2ccc(-c3cnc4[nH]ncc4c3)cc2F)no1` [Example 32, N-(5-(tert-butyl)isoxazol-3-yl)-2-(2-fluoro-4-(1H-pyrazolo[3,4-b]pyridin-5-yl)phenyl)acetamide]: greater than 8.00; for `CC(C)(C)c1cc(NC(=O)Cc2ccc(-c3cnc4[nH]nc(CO)c4c3)cc2F)no1` [Example 55, N-(5-(tert-butyl)isoxazol-3-yl)-2-(2-fluoro-4-(3-(hydroxymethyl)-1H-pyrazolo[3,4-b]pyridin-5-yl)phenyl)acetamide]: greater than 8.00; for `COc1cc2ncc(-c3ccc(CC(=O)Nc4cc(C(C)(C)C)on4)c(F)c3)nc2cc1OC` [Example 43, N-(5-(tert-butyl)isoxazol-3-yl)-2-(4-(6,7-dimethoxyquinoxalin-2-yl)-2-fluorophenyl)acetamide]: greater than 8.00.
Turning to `CCOc1n[nH]c2ncc(-c3ccc(CC(=O)Nc4cc(C(C)(C)C(F)(F)F)on4)cc3)cc12` [Example 39, 2-(4-(3-ethoxy-1H-pyrazolo[3,4-b]pyridin-5-yl)phenyl)-N-(5-(1,1,1-trifluoro-2-methylpropan-2-yl)isoxazol-3-yl)acetamide], on FLT3-ITD, the pIC50 was greater than 8.00.
The same measure, in the same setting: the same measure for `CN(C)Cc1cc2cc(-c3ccc(CC(=O)Nc4cc(C(C)(C)C)on4)cc3)cnc2[nH]1` [Example 52, N-(5-(tert-butyl)isoxazol-3-yl)-2-(4-(2-((dimethylamino)methyl)-1H-pyrrolo[2,3-b]pyridin-5-yl)phenyl)acetamide]: greater than 8.00; for `O=C(Cc1ccc(-c2cnc3[nH]ccc3n2)cc1F)Nc1cc(C2(C(F)(F)F)CC2)on1` [Example 30, 2-(2-fluoro-4-(5H-pyrrolo[2,3-b]pyrazin-2-yl)phenyl)-N-(5-(1-(trifluoromethyl)cyclopropyl)isoxazol-3-yl)acetamide]: greater than 8.00.
For `COc1n[nH]c2ncc(-c3ccc(CC(=O)Nc4cc(C5(C(F)(F)F)CC5)on4)c(F)c3)cc12` [Example 53, 2-(2-fluoro-4-(3-methoxy-1H-pyrazolo[3,4-b]pyridin-5-yl)phenyl)-N-(5-(1-(trifluoromethyl)cyclopropyl)isoxazol-3-yl)acetamide], the pIC50 on FLT3-ITD is greater than 8.00.
On to `COc1cc2ncc(-c3ccc(CC(=O)Nc4cc(C5(C(F)(F)F)CC5)on4)cc3)nc2cc1OC` [Example 1, 2-(4-(6,7-dimethoxyquinoxalin-2-yl)phenyl)-N-(5-(1-(trifluoromethyl)cyclopropyl)isoxazol-3-yl)acetamide], for which the pIC50 on FLT3-ITD is greater than 8.00.
`CNCc1n[nH]c2ncc(-c3ccc(CC(=O)Nc4cc(C(C)(C)C)on4)c(F)c3)cc12` [Example 57, N-(5-(tert-butyl)isoxazol-3-yl)-2-(2-fluoro-4-(3-((methylamino)methyl)-1H-pyrazolo[3,4-b]pyridin-5-yl)phenyl)acetamide]: the negative logarithm of the IC50 (pIC50) at FLT3-ITD is greater than 8.00.
Turning to `CC(C)(C)c1cc(NC(=O)Cc2ccc(-c3cnc4[nH]c(CO)cc4c3)cc2)no1` [Example 50, N-(5-(tert-butyl)isoxazol-3-yl)-2-(4-(2-(hydroxymethyl)-1H-pyrrolo[2,3-b]pyridin-5-yl)phenyl)acetamide], at FLT3-ITD, the pIC50 was greater than 8.00.
Regarding `COc1cc2ncc(-c3ccc(CC(=O)Nc4cc(C(C)(C)C)no4)cc3)nc2cc1OC` [Example 73, N-(3-(tert-butyl)isoxazol-5-yl)-2-(4-(6,7-dimethoxyquinoxalin-2-yl)phenyl)acetamide], the pIC50 on FLT3-ITD is greater than 8.00.
In the case of `CN(C)c1n[nH]c2ncc(-c3ccc(CC(=O)Nc4cc(C5(C(F)(F)F)CC5)on4)c(F)c3)cc12` [Example 61, 2-(4-(3-(dimethylamino)-1H-pyrazolo[3,4-b]pyridin-5-yl)-2-fluorophenyl)-N-(5-(1-(trifluoromethyl)cyclopropyl)isoxazol-3-yl)acetamide], the pIC50 on FLT3-ITD was greater than 8.00.
On the same count and under the same terms, the same measure for `CC(C)(c1cc(NC(=O)Cc2ccc(-c3cnc4[nH]ccc4c3)cc2)no1)C(F)(F)F` [Example 26, 2-(4-(1H-pyrrolo[2,3-b]pyridin-5-yl)phenyl)-N-(5-(1,1,1-trifluoro-2-methylpropan-2-yl)isoxazol-3-yl)acetamide]: greater than 8.00; for `COc1n[nH]c2ncc(-c3ccc(CC(=O)Nc4cc(C(C)(C)C(F)(F)F)on4)cc3)cc12` [Example 35, 2-(4-(3-methoxy-1H-pyrazolo[3,4-b]pyridin-5-yl)phenyl)-N-(5-(1,1,1-trifluoro-2-methylpropan-2-yl)isoxazol-3-yl)acetamide]: greater than 8.00; for `CC(C)(C)c1cc(NC(=O)Cc2ccc(-c3cnc4[nH]ccc4c3)cc2)no1` [Example 25, 2-(4-(1H-pyrrolo[2,3-b]pyridin-5-yl)phenyl)-N-(5-(tert-butyl)isoxazol-3-yl)acetamide]: greater than 8.00.
Regarding `CC(C)(c1cc(NC(=O)Cc2ccc(-c3cnc4[nH]nnc4c3)cc2)no1)C(F)(F)F` [Example 41, 2-(4-(3H-[1,2,3]triazolo[4,5-b]pyridin-6-yl)phenyl)-N-(5-(1,1,1-trifluoro-2-methylpropan-2-yl)isoxazol-3-yl)acetamide], the pIC50 at FLT3-ITD was greater than 8.00.
Consider `CC(C)(C)c1cc(NC(=O)Cc2ccc(-c3cnc4[nH]nc(Cl)c4c3)cc2)no1` [Example 38, N-(5-(tert-butyl)isoxazol-3-yl)-2-(4-(3-chloro-1H-pyrazolo[3,4-b]pyridin-5-yl)phenyl)acetamide], for which, at FLT3-ITD, the pIC50 is greater than 8.00.
As to `CC(C)(C)c1cc(NC(=O)Cc2ccc(-c3cnc4[nH]cc(CO)c4c3)cc2)no1` [Example 60, N-(5-(tert-butyl)isoxazol-3-yl)-2-(4-(3-(hydroxymethyl)-1H-pyrrolo[2,3-b]pyridin-5-yl)phenyl)acetamide], on FLT3-ITD, the pIC50 is greater than 8.00.
Consider `Cc1n[nH]c2ncc(-c3ccc(CC(=O)Nc4cc(C(C)(C)C)on4)c(F)c3)cc12` [Example 51, N-(5-(tert-butyl)isoxazol-3-yl)-2-(2-fluoro-4-(3-methyl-1H-pyrazolo[3,4-b]pyridin-5-yl)phenyl)acetamide], for which, on FLT3-ITD, the pIC50 was greater than 8.00.
With `COc1cc2nc(-c3ccc(CC(=O)Nc4cc(C5(C(F)(F)F)CC5)on4)c(F)c3)cnc2cc1OCCN1CC(C)OC(C)C1` (stereo not drawn) [Example 174, 2-[4-[6-[2-(2,6-dimethylmorpholin-4-yl)ethoxy]-7-methoxy-quinoxalin-2-yl]-2-fluoro-phenyl]-N-[5-[1-(trifluoro-methyl)cyclo-propyl]isoxazol-3-yl]acetamide], the pKd on FLT3 kinase (competition binding assay) and at KIT kinase (competition binding assay) was greater than 8.30 throughout.
For the compound `COc1cc2ncc(-c3ccc(CC(=O)Nc4cc(C5(C(F)(F)F)CC5)on4)c(F)c3)nc2cc1OCCCN` [Example 227, 2-[4-[7-(3-aminopropoxy)-6-methoxy-quinoxalin-2-yl]-2-fluoro-phenyl]-N-[5-[1-(trifluoromethyl)cyclo-propyl]isoxazol-3-yl]acetamide], the pKd at FLT3 kinase (competition binding) and on KIT kinase (competition binding) was greater than 8.30 throughout.
For the compound `CNCCOc1cc2nc(-c3ccc(CC(=O)Nc4cc(C(C)(C)C(F)(F)F)on4)c(F)c3)cnc2cc1OC` [Example 196, 2-[2-fluoro-4-[6-methoxy-7-[2-(methyl-amino)ethoxy]quinoxalin-2-yl]phenyl]-N-[5-(2,2,2-trifluoro-1,1-dimethyl-ethyl)isoxazol-3-yl]acetamide], the pKd on FLT3 kinase (competition binding) and on KIT kinase (competition binding) was greater than 8.30 each time.
For `COc1cc2nc(-c3ccc(CC(=O)Nc4cc(C5(C(F)(F)F)CC5)on4)c(F)c3)cnc2cc1OC[C@@H](C)O` [Example 208, 2-[2-fluoro-4-[6-[(2R)-2-hydroxypropoxy]-7-methoxy-quinoxalin-2-yl]phenyl]-N-[5-[1-(trifluoro-methyl)cyclopropyl]isoxazol-3-yl]acetamide], the pKd on FLT3 kinase (competition binding) and on KIT kinase (competition binding) was greater than 8.30 in each case.
As for `COc1cc2nc(-c3ccc(CC(=O)Nc4cc(C5(C(F)(F)F)CC5)on4)c(F)c3)cnc2cc1OCCN1C2CCC1COC2` [Example 245, 2-[2-fluoro-4-[7-methoxy-6-[2-(3-oxa-8-azabicyclo[3.2.1]octan-8-yl)ethoxy]quinoxalin-2-yl]phenyl]-N-[5-[1-(trifluoromethyl)cyclo-propyl]isoxazol-3-yl]acetamide], the pKd at FLT3 kinase (competition binding) and at KIT kinase (competition binding) was greater than 8.30 throughout.
Consider `COc1cc2nc(-c3ccc(CC(=O)Nc4cc(C(C)(C)C(F)(F)F)on4)c(F)c3)cnc2cc1OCCCN1CCOCC1` [Example 209, 2-[2-fluoro-4-[7-methoxy-6-(3-morpholino-propoxy)quinoxalin-2-yl]phenyl]-N-[5-(2,2,2-trifluoro-1,1-dimethyl-ethyl)isoxazol-3-yl]acetamide], for which the pKd at FLT3 kinase (competition binding) and at KIT kinase (competition binding) was greater than 8.30 throughout.
In the case of `COc1cc2nc(-c3ccc(CC(=O)Nc4cc(C5(C(F)(F)F)CC5)on4)c(F)c3)cnc2cc1OCCN1CC2CC(C1)O2` [Example 223, 2-[2-fluoro-4-[7-methoxy-6-[2-(6-oxa-3-azabicyclo[3.1.1]heptan-3-yl)ethoxy]quinoxalin-2-yl]phenyl]-N-[5-[1-(trifluoromethyl)cyclo-propyl]isoxazol-3-yl]acetamide], the pKd at FLT3 kinase (competition binding) and on KIT kinase (competition binding) was greater than 8.30 each time.
As for `COc1cc2ncc(-c3ccc(CC(=O)Nc4cc(C5(C(F)(F)F)CC5)on4)c(F)c3)nc2cc1OCC(O)CO` (stereo not drawn) [Example 236, 2-[4-[7-(2,3-dihydroxypropoxy)-6-methoxy-quinoxalin-2-yl]-2-fluoro-phenyl]-N-[5-[1-(trifluoromethyl)cyclo-propyl]isoxazol-3-yl]acetamide], the pKd on FLT3 kinase (competition binding) and on KIT kinase (competition binding) was greater than 8.30 each time.
